{"source": "patent US20230049952A1", "about": "“METHODS AND COMPOUNDS FOR RESTORING MUTANT P53 FUNCTION” (PMV Pharmaceuticals, Inc., priority 2020, published 2023)", "system": "p53 signaling pathway in MT373 tumors", "assay": "MT373 syngeneic sarcoma model: mouse p53 signaling pathway profiling panel", "assay_type": "in vivo", "details": "MT373 tumors", "data": [{"smiles": "CCn1c(C#CCNc2ccccc2)cc2cc(CNC3CCN(C)CC3)ccc21", "note": "[Compound 1, 1-Anilino-3-{1-ethyl-5-[(1-methyl-4-piperidylamino)methyl]-1H-indol-2-yl}-2-propyne]", "values": [{"measurement": "Wt1 mRNA, Fold Increase Over Vehicle Control or Percent Reduction Compared to Vehicle Control (%)", "setting": "75 mg/kg BIDx1, 72 h", "result": "23.33 fold or %"}, {"measurement": "Zmat3 mRNA, Fold Increase Over Vehicle Control or Percent Reduction Compared to Vehicle Control (%)", "setting": "75 mg/kg BIDx1, 72 h", "result": "1.10 fold or %"}, {"measurement": "Actb* mRNA (housekeeping or reference gene), Fold Increase Over Vehicle Control or Percent Reduction Compared to Vehicle Control (%)", "setting": "150 mg/kg BIDx1, 8 h", "result": "1.00 fold or %"}, {"measurement": "B2m* mRNA (housekeeping or reference gene), Fold Increase Over Vehicle Control or Percent Reduction Compared to Vehicle Control (%)", "setting": "150 mg/kg BIDx1, 8 h", "result": "1.05 fold or %"}, {"measurement": "Gapdh* mRNA (housekeeping or reference gene), Fold Increase Over Vehicle Control or Percent Reduction Compared to Vehicle Control (%)", "setting": "150 mg/kg BIDx1, 8 h", "result": "1.02 fold or %"}, {"measurement": "Gusb* mRNA (housekeeping or reference gene), Fold Increase Over Vehicle Control or Percent Reduction Compared to Vehicle Control (%)", "setting": "150 mg/kg BIDx1, 8 h", "result": "1.02 fold or %"}, {"measurement": "Hsp90ab1* mRNA (housekeeping or reference gene), Fold Increase Over Vehicle Control or Percent Reduction Compared to Vehicle Control (%)", "setting": "150 mg/kg BIDx1, 8 h", "result": "9.13 fold or %"}, {"measurement": "MGDC* (housekeeping or reference gene), Fold Increase Over Vehicle Control or Percent Reduction Compared to Vehicle Control (%)", "setting": "150 mg/kg BIDx1, 8 h", "result": "1.00 fold or %"}, {"measurement": "Trp63 mRNA, Fold Increase Over Vehicle Control or Percent Reduction Compared to Vehicle Control (%)", "setting": "150 mg/kg BIDx1, 8 h", "result": "1.02 fold or %"}, {"measurement": "Trp73 mRNA, Fold Increase Over Vehicle Control or Percent Reduction Compared to Vehicle Control (%)", "setting": "150 mg/kg BIDx1, 8 h", "result": "1.00 fold or %"}, {"measurement": "Wt1 mRNA, Fold Increase Over Vehicle Control or Percent Reduction Compared to Vehicle Control (%)", "setting": "150 mg/kg BIDx1, 8 h", "result": "30.29 fold or %"}, {"measurement": "Zmat3 mRNA, Fold Increase Over Vehicle Control or Percent Reduction Compared to Vehicle Control (%)", "setting": "150 mg/kg BIDx1, 8 h", "result": "6.69 fold or %"}, {"measurement": "Actb* mRNA (housekeeping or reference gene), Fold Increase Over Vehicle Control or Percent Reduction Compared to Vehicle Control (%)", "setting": "150 mg/kg BIDx1, 24 h", "result": "1.11 fold or %"}, {"measurement": "B2m* mRNA (housekeeping or reference gene), Fold Increase Over Vehicle Control or Percent Reduction Compared to Vehicle Control (%)", "setting": "150 mg/kg BIDx1, 24 h", "result": "1.11 fold or %"}, {"measurement": "Gapdh* mRNA (housekeeping or reference gene), Fold Increase Over Vehicle Control or Percent Reduction Compared to Vehicle Control (%)", "setting": "150 mg/kg BIDx1, 24 h", "result": "14.16 fold or %"}, {"measurement": "Gusb* mRNA (housekeeping or reference gene), Fold Increase Over Vehicle Control or Percent Reduction Compared to Vehicle Control (%)", "setting": "150 mg/kg BIDx1, 24 h", "result": "1.25 fold or %"}, {"measurement": "Hsp90ab1* mRNA (housekeeping or reference gene), Fold Increase Over Vehicle Control or Percent Reduction Compared to Vehicle Control (%)", "setting": "150 mg/kg BIDx1, 24 h", "result": "24.42 fold or %"}, {"measurement": "MGDC* (housekeeping or reference gene), Fold Increase Over Vehicle Control or Percent Reduction Compared to Vehicle Control (%)", "setting": "150 mg/kg BIDx1, 24 h", "result": "1.00 fold or %"}, {"measurement": "Trp63 mRNA, Fold Increase Over Vehicle Control or Percent Reduction Compared to Vehicle Control (%)", "setting": "150 mg/kg BIDx1, 24 h", "result": "1.00 fold or %"}, {"measurement": "Trp73 mRNA, Fold Increase Over Vehicle Control or Percent Reduction Compared to Vehicle Control (%)", "setting": "150 mg/kg BIDx1, 24 h", "result": "1.00 fold or %"}, {"measurement": "Wt1 mRNA, Fold Increase Over Vehicle Control or Percent Reduction Compared to Vehicle Control (%)", "setting": "150 mg/kg BIDx1, 24 h", "result": "21.51 fold or %"}, {"measurement": "Zmat3 mRNA, Fold Increase Over Vehicle Control or Percent Reduction Compared to Vehicle Control (%)", "setting": "150 mg/kg BIDx1, 24 h", "result": 6.17, "unit": "fold"}, {"measurement": "Actb* mRNA (housekeeping or reference gene), Fold Increase Over Vehicle Control or Percent Reduction Compared to Vehicle Control (%)", "setting": "150 mg/kg BIDx1, 48 h", "result": "1.04 fold or %"}, {"measurement": "B2m* mRNA (housekeeping or reference gene), Fold Increase Over Vehicle Control or Percent Reduction Compared to Vehicle Control (%)", "setting": "150 mg/kg BIDx1, 48 h", "result": "1.20 fold or %"}, {"measurement": "Gapdh* mRNA (housekeeping or reference gene), Fold Increase Over Vehicle Control or Percent Reduction Compared to Vehicle Control (%)", "setting": "150 mg/kg BIDx1, 48 h", "result": "27.30 fold or %"}, {"measurement": "Gusb* mRNA (housekeeping or reference gene), Fold Increase Over Vehicle Control or Percent Reduction Compared to Vehicle Control (%)", "setting": "150 mg/kg BIDx1, 48 h", "result": "1.39 fold or %"}, {"measurement": "Hsp90ab1* mRNA (housekeeping or reference gene), Fold Increase Over Vehicle Control or Percent Reduction Compared to Vehicle Control (%)", "setting": "150 mg/kg BIDx1, 48 h", "result": "19.96 fold or %"}, {"measurement": "MGDC* (housekeeping or reference gene), Fold Increase Over Vehicle Control or Percent Reduction Compared to Vehicle Control (%)", "setting": "150 mg/kg BIDx1, 48 h", "result": "1.00 fold or %"}, {"measurement": "Trp63 mRNA, Fold Increase Over Vehicle Control or Percent Reduction Compared to Vehicle Control (%)", "setting": "150 mg/kg BIDx1, 48 h", "result": "1.00 fold or %"}, {"measurement": "Trp73 mRNA, Fold Increase Over Vehicle Control or Percent Reduction Compared to Vehicle Control (%)", "setting": "150 mg/kg BIDx1, 48 h", "result": "1.00 fold or %"}, {"measurement": "Wt1 mRNA, Fold Increase Over Vehicle Control or Percent Reduction Compared to Vehicle Control (%)", "setting": "150 mg/kg BIDx1, 48 h", "result": "21.51 fold or %"}, {"measurement": "Zmat3 mRNA, Fold Increase Over Vehicle Control or Percent Reduction Compared to Vehicle Control (%)", "setting": "150 mg/kg BIDx1, 48 h", "result": "1.36 fold or %"}, {"measurement": "Actb* mRNA (housekeeping or reference gene), Fold Increase Over Vehicle Control or Percent Reduction Compared to Vehicle Control (%)", "setting": "150 mg/kg BIDx1, 72 h", "result": "1.04 fold or %"}, {"measurement": "B2m* mRNA (housekeeping or reference gene), Fold Increase Over Vehicle Control or Percent Reduction Compared to Vehicle Control (%)", "setting": "150 mg/kg BIDx1, 72 h", "result": "1.18 fold or %"}, {"measurement": "Gapdh* mRNA (housekeeping or reference gene), Fold Increase Over Vehicle Control or Percent Reduction Compared to Vehicle Control (%)", "setting": "150 mg/kg BIDx1, 72 h", "result": "19.69 fold or %"}, {"measurement": "Gusb* mRNA (housekeeping or reference gene), Fold Increase Over Vehicle Control or Percent Reduction Compared to Vehicle Control (%)", "setting": "150 mg/kg BIDx1, 72 h", "result": "1.27 fold or %"}, {"measurement": "Hsp90ab1* mRNA (housekeeping or reference gene), Fold Increase Over Vehicle Control or Percent Reduction Compared to Vehicle Control (%)", "setting": "150 mg/kg BIDx1, 72 h", "result": "1.00 fold or %"}, {"measurement": "MGDC* (housekeeping or reference gene), Fold Increase Over Vehicle Control or Percent Reduction Compared to Vehicle Control (%)", "setting": "150 mg/kg BIDx1, 72 h", "result": "1.53 fold or %"}, {"measurement": "Trp63 mRNA, Fold Increase Over Vehicle Control or Percent Reduction Compared to Vehicle Control (%)", "setting": "150 mg/kg BIDx1, 72 h", "result": "1.67 fold or %"}, {"measurement": "Trp73 mRNA, Fold Increase Over Vehicle Control or Percent Reduction Compared to Vehicle Control (%)", "setting": "150 mg/kg BIDx1, 72 h", "result": "1.00 fold or %"}, {"measurement": "Wt1 mRNA, Fold Increase Over Vehicle Control or Percent Reduction Compared to Vehicle Control (%)", "setting": "150 mg/kg BIDx1, 72 h", "result": "21.51 fold or %"}, {"measurement": "Zmat3 mRNA, Fold Increase Over Vehicle Control or Percent Reduction Compared to Vehicle Control (%)", "setting": "150 mg/kg BIDx1, 72 h", "result": "1.21 fold or %"}]}]}
